Tests used:
[1] = target: T1, human recombinant NOP receptor (Homo sapiens, UniProt P41146); test: Stimulation of GTP?S binding on CHOhNOP membranes; type: biochemical; conditions: for Stimulation upon binding GTP?S, Agonist pEC50: Table 1, membrane of CHOhNOP cells
T1 construct: expressed in transfected cells; host or cells: CHO cells (CHOhNOP), membranes

mouse vas deferens = test: Inhibition of the twitch induced by electrical stimulation of mouse vas deferens; type: cell-based
Description: The compounds were tested in vitro on Hamster oocytes membranes expressing the human recombinant NOP receptor (CHOhNoP) (receptor binding experiments and GTP?S binding stimulation experiments) and on the mouse vas deferens after electrical stimulation.

[2] = target: T2, human recombinant opioid receptor mu (MOP) (Homo sapiens, UniProt P35372); test: Receptor binding on CHO membranes, [3H]-Diprenorphine
T2 construct: expressed in transfected cells; host or cells: CHO cells, membranes

[3] = target: T3, human recombinant opioid receptor delta (DOP) (Homo sapiens, UniProt P41143); test: as above
T3 construct: expressed in transfected cells; host or cells: CHO cells, membranes

[4] = Metabolic stability in mouse plasma; type: in vitro ADME; conditions: for half-life at 6 μg/μl: male, Swiss, mouse, plasma, pH 7.4, mouse plasma, 37° C., mean±standard deviation, read-out: T½ Plasma; for Plasma T½ compared to N/OFQ: mouse plasma
Description: (§1) Plasma and brain tissue samples were obtained from male Swiss mice (Morini, Reggio Emilia, Italy, 25-30 g). The animal, sacrificed by ether anesthesia, was perfused with physiological heparin solution injected through a needle placed in the left ventricle. Blood was then withdrawn and was centrifuged at 14000×g for 2 minutes at room temperature. After separation from the pellet, the plasma was aliquoted and stocked at −80° C. After blood withdrawal, the animal was perfused further with a physiological solution for 2 minutes before brain removal. The brain tissue was homogenized in 5 vol. (w/v) of Tris/HCl (50 mM, pH 7.4, 0° C.) with a ultra-Turrax (Janke Kunkel, Staufen, FRG) 3 times for 15 seconds each. The supernatant obtained by centrifugation (3000×g for 15 min at 4° C.) was decanted and then stocked at −80° C.
(§2) The protein content of the preparations, determined by the Bradford method, as described in Anal. Biochem., 72, 248-254, 1976, was approximately 8 μg/μl for the brain homogenate and 17 μg/μl for the plasma
(§3) An aliquot of 100 μl solution of each peptide (3 mg/500 μl Tris) was incubated (at a final concentration of […]) with brain homogenate or plasma (450 μl) in a total volume of 1 ml, containing Tris/HCl 50 mM pH 7.4 buffer. Incubation of the aliquots was carried out at 37° C. for various periods up to 240 min. At different incubation times, an aliquot of the solution (100 μl) was removed and the degradation was blocked by addition of 4.5% TFA solution (200 μl). After centrifugation (3000 rpm for 15 minutes) an aliquot (100 μl) of supernatant was injected into RP-HPLC. HPLC analysis was performed in a Kromasil 100-5C18 column (4.6×250 mm) using a Beckman System Gold chromatography system equipped with a variable wave length UV detector.
(§4) The experimental conditions for elution included a gradient analysis with water (solvent A) and acetonitrile (solvent B), both containing 0.1% TFA, at a flow rate of 0.7 ml/min. The following protocol was used for gradient analysis, selected on the basis of the physico-chemical characteristics of the analyte: linear gradient from 5% to 40% B in 20 minutes; linear gradient from 40% to 60% B in 5 minutes; linear gradient from 60% to 5% B in 5 minutes. The eluate was monitored at 220 nm. The half life (T1/2) was obtained by linear regression with the least square method, diagramming the peak areas of each derivative as a function of the incubation times, using at least five points for each analysis.

[5] = Metabolic stability in mouse brain homogenate; type: in vitro ADME; conditions: male, Swiss, pH 7.4, mouse brain homogenate, 37° C., mean±standard deviation, read-out: T½ Brain
Description: as §1, §2, §3, §4

[6] = target: T1, human recombinant NOP receptor; test: Receptor binding, displacement of tritiated N/OFQ on CHOhNOP membranes
[7] = test system: vas deferens of knockout mice for the NOP receptor (NOP−/−); test: Electrically stimulated vas deferens from NOP receptor knockout mice; type: cell-based, mouse
[8] = target: T4, human recombinant opioid receptor kappa (KOP) (Homo sapiens, UniProt P41145); test: Receptor binding on CHO membranes, [3H]-Diprenorphine; conditions: Table 3, CHO cells
T4 construct: expressed in transfected cells; host or cells: CHO cells, membranes

mice [9] = test: Tail withdrawal assay in mice; type: in vivo, mouse
Description: (§5) Control animals received one i.c.v. injection of saline (2 μl/mouse). Each point represents the mean±s.e.m. of at least 4 experiments.
1) tail withdrawal assay, according to the experimental protocols described by Calò et al., (Br J Pharmacol 125, 373-378, 1998) and Rizzi et al. (Clin Pharmacol 18, 56, 2004);

mice [10] = test: Food intake in fed mice; type: in vivo, mouse
Source text: 2) measurement of food intake in fed animals, as described by Rizzi et al. (National Congress of the Italian Society of Neuroscience and joint Italian-Swedish Neuroscience Meetings, Ischia (Napoli) 1-4 Oct. 2005);

mice [11] = test: Spontaneous locomotor activity in mice; type: in vivo, mouse
Description: as §5
3) assay for measurement of spontaneous locomotor activity, as described by Rizzi et al., (Naunyn Schmiedebergs Arch Pharmacol 363, 161-165, 2001.

[12] = target: T5, human recombinant NOP receptors expressed in HEK293 cells (Homo sapiens, UniProt P41146); conditions: Okada et al. 2000; cited from earlier work
T5 construct: host or cells: HEK293 cells

[13] = compared with N/OFQ maximal effect
[14] = Table 2, wild type (NOP+/+) mice
[15] = Table 3, CHO cells, [3H]-Diprenorphine

T1 sequence (P41146 whole entry): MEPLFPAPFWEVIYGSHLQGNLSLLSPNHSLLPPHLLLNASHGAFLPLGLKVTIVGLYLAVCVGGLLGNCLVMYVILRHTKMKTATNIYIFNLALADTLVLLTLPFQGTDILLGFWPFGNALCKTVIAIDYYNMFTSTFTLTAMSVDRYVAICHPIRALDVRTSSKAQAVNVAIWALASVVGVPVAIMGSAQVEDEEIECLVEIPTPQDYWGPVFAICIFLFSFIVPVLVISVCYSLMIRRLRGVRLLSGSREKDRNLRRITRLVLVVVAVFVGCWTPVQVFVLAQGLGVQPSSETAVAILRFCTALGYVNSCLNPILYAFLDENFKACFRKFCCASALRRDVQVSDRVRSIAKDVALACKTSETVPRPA
T3 sequence (P41143 whole entry): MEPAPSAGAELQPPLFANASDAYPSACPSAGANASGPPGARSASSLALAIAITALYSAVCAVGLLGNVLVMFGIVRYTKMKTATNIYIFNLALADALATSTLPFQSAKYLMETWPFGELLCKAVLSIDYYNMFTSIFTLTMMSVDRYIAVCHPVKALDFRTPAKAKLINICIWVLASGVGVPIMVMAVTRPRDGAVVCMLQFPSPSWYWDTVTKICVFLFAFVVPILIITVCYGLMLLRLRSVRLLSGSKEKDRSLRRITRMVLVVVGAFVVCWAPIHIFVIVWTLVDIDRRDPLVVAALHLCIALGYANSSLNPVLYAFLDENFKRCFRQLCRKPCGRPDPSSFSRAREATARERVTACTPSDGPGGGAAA
T2 sequence (P35372 whole entry): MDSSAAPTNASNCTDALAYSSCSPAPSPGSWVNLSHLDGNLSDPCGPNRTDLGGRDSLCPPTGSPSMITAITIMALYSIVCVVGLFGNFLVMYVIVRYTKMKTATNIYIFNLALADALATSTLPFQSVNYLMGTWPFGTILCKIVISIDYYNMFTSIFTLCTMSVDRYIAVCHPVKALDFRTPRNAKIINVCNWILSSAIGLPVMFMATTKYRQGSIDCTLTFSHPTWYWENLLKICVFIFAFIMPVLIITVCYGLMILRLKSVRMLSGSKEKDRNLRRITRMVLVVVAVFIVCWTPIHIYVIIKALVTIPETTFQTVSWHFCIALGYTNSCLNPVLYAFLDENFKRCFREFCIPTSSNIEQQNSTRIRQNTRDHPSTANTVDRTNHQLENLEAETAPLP
T4 sequence (P41145 whole entry): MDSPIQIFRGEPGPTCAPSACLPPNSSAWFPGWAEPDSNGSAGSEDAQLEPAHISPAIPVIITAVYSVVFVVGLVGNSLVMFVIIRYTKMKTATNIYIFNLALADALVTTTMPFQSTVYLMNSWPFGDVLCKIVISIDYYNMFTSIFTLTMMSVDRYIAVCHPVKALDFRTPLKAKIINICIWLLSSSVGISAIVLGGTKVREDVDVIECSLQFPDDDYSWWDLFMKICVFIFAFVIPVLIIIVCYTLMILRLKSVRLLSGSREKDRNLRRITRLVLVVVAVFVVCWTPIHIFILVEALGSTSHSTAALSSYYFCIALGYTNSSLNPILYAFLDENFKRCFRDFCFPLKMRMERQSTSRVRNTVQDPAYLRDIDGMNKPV
T5 sequence (P41146 whole entry): as the sequence (P41146 whole entry) above

C[C@H](NC(=O)[C@H](CO)NC(=O)[C@H](CCCCN)NC(=O)[C@H](CCCNC(=N)N)NC(=O)C(C)(C)NC(=O)CNC(=O)[C@@H](NC(=O)[C@H](Cc1ccccc1)NC(=O)CNC(=O)CNC(=O)CNCc1ccccc1)[C@@H](C)O)C(=O)N[C@@H](CCCNC(=N)N)C(=O)N[C@@H](CCCCN)C(=O)N[C@@H](CCCNC(=N)N)C(=O)N[C@@H](CCCCN)C(=O)N[C@@H](CC(N)=O)C(=O)N[C@@H](CCC(N)=O)C(N)=O [UFP-111, [Nphe^1,Aib^7,Arg^14,Lys^15]N/OFQ-NH2]
Kb [1]: 0.00209 µM | Stimulation upon binding GTP?S, Agonist pEC50 [1]: Inactive | Functional behaviour in GTP?S binding [1, 13]: competitive antagonist | Inhibition of the twitch induced by electric stimulation, Agonist pEC50 (mouse vas deferens; Table 1): Inactive | Inhibition of the twitch induced by electric stimulation, Antagonist pA2 (mouse vas deferens; Table 1, against N/OFQ): 7.46 | Functional behaviour in mouse vas deferens (mouse vas deferens; [13]): competitive antagonist | Ki [2]: > 10 µM | Ki [3]: > 10 µM | half-life at 6 μg/μl [4]: 2.28 ± 0.0667 h | Plasma T½ compared to N/OFQ [4]: about twice as long | half-life at 6 μg/μl [5]: 0.183 ± 0.0317 h

C[C@H](NC(=O)[C@H](CO)NC(=O)[C@H](CCCCN)NC(=O)[C@H](CCCNC(=N)N)NC(=O)C(C)(C)NC(=O)CNC(=O)[C@@H](NC(=O)[C@H](Cc1ccc(F)cc1)NC(=O)CNC(=O)CNC(=O)[C@@H](N)Cc1ccccc1)[C@@H](C)O)C(=O)N[C@@H](CCCNC(=N)N)C(=O)N[C@@H](CCCCN)C(=O)N[C@@H](CCCNC(=N)N)C(=O)N[C@@H](CCCCN)C(=O)N[C@@H](CC(N)=O)C(=O)N[C@@H](CCC(N)=O)C(N)=O [UFP-112, [(pF)Phe^4,Aib^7,Arg^14,Lys^15]N/OFQ-NH2]
Receptor binding PKi ([6]; Table 1, membrane of CHOhNOP cells, tritiated N/OFQ): 10.55 | pKi NOP ([6]; Table 3, CHO cells, [3H]N/OFQ): 10.55 | Stimulation upon binding GTP?S, Agonist pEC50 [1]: 10.55 | Emax ([1]; read-out: Stimulation upon binding GTP?S, Agonist Emax): 118 ± 9% | Inhibition of the twitch induced by electric stimulation, Agonist Emax (mouse vas deferens; Table 1): −85 ± 2% | Inhibition of the twitch induced by electric stimulation, Agonist pEC50 (mouse vas deferens; Table 1): 9.48 | Emax NOP+/+ (mouse vas deferens; [14]): 93 ± 3% | pEC50 NOP+/+ (mouse vas deferens; [14]): 8.94 | Kinetics of action and reversibility of the effects after washing (mouse vas deferens; compared with N/OFQ, equi-effective concentrations): much slower | Increase in potency compared to the reference sequence (mouse vas deferens; mouse vas deferens): more than 100 fold | Action in the mouse vas deferens in presence of naloxone (mouse vas deferens; naloxone present): not modified | Inhibitory effect on the contraction induced by electrical stimulation in NOP−/− vas deferens [7]: disappeared | pEC50 NOP−/− ([7]; Table 2): <6 | pKi MOP [2, 15]: 7.13 | pKi DOP [3, 15]: 6.37 | pKi KOP [8]: 8.36 | Effect in tail withdrawal assay, i.c.v. (mice [9]; 0.001-0.1 nmol, intracerebroventricular): pronociceptive effects | Effect in tail withdrawal assay, i.t. (mice [9]; 0.001-0.1 nmol, intrathecal): antinociceptive effects | Tail withdrawal effects in NOP−/− mice (mice [9]; NOP−/− mice): absent | Duration of action in tail withdrawal test (mice [9]; equi-effective doses): > 120 min | Potency in vivo relative to N/OFQ (mice [9]; stated for each in vivo assay (tail withdrawal, food intake, locomotor activity)): about 100 fold | Hyperphagic effects in NOP−/− mice (mice [10]; NOP−/− mice): absent | Potency relative to N/OFQ in food intake (mice [10]; fed mice): 100 fold | Effect on food intake (mice [10]; fed mice, equi-effective doses): significant increase | Time after which locomotor effect ended (mice [11]; 0.1 nmol i.c.v.): about 6 h | Effect on spontaneous locomotor activity (mice [11]; i.c.v., N/OFQ 10 nmol, UFP-112 0.1 nmol): inhibited the locomotor activity | half-life at 6 μg/μl [4]: 2.78 ± 0.15 h | Plasma T½ compared to N/OFQ [4]: almost three-fold longer | half-life at 6 μg/μl [5]: 0.188 ± 0.0233 h

[Arg^14,Lys^15]N/OFQ
Potency relative to N/OFQ [12]: 17 fold
